Paper PMC7782499, “Progerinin, an optimized progerin-lamin A binding inhibitor, ameliorates premature senescence phenotypes of Hutchinson-Gilford progeria syndrome” (Communications Biology, 2021)
Values joined by “and” are separate entries in the source; they are usually repeats but may differ in a detail not shown here. Equal entries are not always repeated.

How the values were obtained:
[1] = system: Lmna G609G/+ mouse; experiment: Grip strength test; type: in vivo; conditions: LMNA G609G/+ mice, 41-week-old, SLC-D011 for 6 weeks
Excerpt: (§1) Fig. 4 Oral administration of SLC-D011 suppresses premature aging features. A Gross morphology of SLC-D011-treated (D011) mice at 8 weeks old. Body size of treated mouse was apparently larger than that of the untreated control (Con) mouse. B Oral administration of SLC-D011 increases body weights of Lmna^G609G/G609G mice. Compared with untreated control group, body weight of treated mouse was increased by ~35%, *p < 0.05. C Oral administration of SLC-D011 extends the life span of Lmna^G609G/G609G mouse. SLC-D011 in monoolein-based solution was treated by oral gavage (50 mg/kg, daily) from 5 weeks old. […] E Grip test of Lmna^G609G/+ mice at 41-week-old was performed after administration of SLC-D011 for 6 weeks. The test was repeated 10 times for each mouse (n > 4), **p < 0.001. Data are presented as mean ± SD. […] H Anti-aging effects of single treatment of SLC-D011 or lonafarnib were measured in HGPS patients-derived cells (AG11513, AG03199, AG11498, and AG03198, Coriell Cell Repositories). […] No unit is printed with them; the x axis reads Age (weeks). / Panel C: Ave=16.8 / Max=18 are printed beside the dashed curve of the control (Con). […]
(§2) For analysis of heart rate, mice were anesthetized with 2.5% isoflurane and monitored using LOGIQ E9 (GE Healthcare). […] Each estimate given corresponded to total reads measured ten times, excluding the minimum and the maximum from each group of animals.

[2] = Solubility and stability of SLC-D011 in water and monoolein-based solution; type: physicochemical
Description: Fig. S9. In vitro ADME results of SLC-D011 via oral administration. A. Formulation for complete dissolution. Due to its extremely hydrophobic property, SLC-D011 was not dissolved in water solution (left). To overcome this problem, several edible solutions were tested and monoolein- based solution was selected as a dissolving solution (right). B. SLC-D011 was very stable in solution. For complete dissolution, heating at 80℃ and sonication step were required. However, SLC -D011 was not broken despite of heating […]
and sonication. […] C and D.
Pharmacokinetic analysis of SLC -D011dissolved in monoolein- based solution.

[3] = system: Lmna G609G/+ mouse; experiment: Heart rate (electrocardiographic analysis); type: in vivo; conditions: LMNA G609G/+ mice, SLC-D011 for 6 weeks
Excerpt: as §1, §2

CC1(C)Oc2cc3oc(=O)ccc3cc2C[C@@H]1OC/C=C/c1ccccc1 [SLC-D011]
Grip strength relative to LMNA +/+ (=1) [1]: 0.9456
Force (%) ([1]; LMNA +/+ = 100): 94.5577%
Solubility in water [2]: very low solubility in water
Stability in monoolein-based solution ([2]; after heating and sonicating): very stable in the solution
Heart rate [3]: 462 bmp and 447 bmp and 432 bmp and 454 bmp
